Literature values as cited in patent publication US10335381B2, “Stabilized formulation of triamcinolone acetonide” (University of Mississippi, priority 2006, dated 2019).

Conditions: Gupta 1983

**Q.** Which “optimum pH for TAA stability in aqueous solution” value does the source give for CC1(C)O[C@@H]2C[C@H]3[C@@H]4CCC5=CC(=O)C=C[C@]5(C)[C@@]4(F)[C@@H](O)C[C@]3(C)[C@]2(C(=O)CO)O1 [TAA, triamcinolone acetonide] here?
**A.** about 3.4
